Measurements as given in BindingDB's records for doi:10.1021/jm990599h (National Institute of Diabetes and Digestive and Kidney …, 2000).

Target: Beta-2 adrenergic receptor (Rattus norvegicus) (UniProt P10608)
Assay: Binding of [3H]dihydroalprenolol to beta-2 adrenergic receptor of rat cerebellar membranes

Sequence of Beta-2 adrenergic receptor (Rattus norvegicus) (P10608 whole entry, looked up): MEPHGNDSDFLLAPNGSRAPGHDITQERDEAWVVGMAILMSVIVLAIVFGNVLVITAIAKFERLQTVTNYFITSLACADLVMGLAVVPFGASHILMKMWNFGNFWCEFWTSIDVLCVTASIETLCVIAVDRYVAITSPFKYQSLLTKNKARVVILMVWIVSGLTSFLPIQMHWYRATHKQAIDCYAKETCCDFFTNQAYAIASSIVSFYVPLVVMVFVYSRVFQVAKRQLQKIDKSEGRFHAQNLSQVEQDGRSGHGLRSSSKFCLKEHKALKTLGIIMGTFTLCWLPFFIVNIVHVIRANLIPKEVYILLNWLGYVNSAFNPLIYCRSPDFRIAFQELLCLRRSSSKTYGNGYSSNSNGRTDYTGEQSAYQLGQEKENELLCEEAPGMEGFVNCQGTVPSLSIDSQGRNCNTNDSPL

SMILES	Ki [µM]
NCCc1ccc(O)c(O)c1	50
CNCC(O)c1cc(O)c(O)cc1F (stereo not drawn) [(+/-)4-Fluoro-5-(1-hydroxy-2-methylamino-ethyl)-benzene-1,2-diol]	50
CNC[C@H](O)c1cc(O)c(O)cc1F [(R)4-Fluoro-5-(1-hydroxy-2-methylamino-ethyl)-benzene-1,2-diol]	38
